Bridge positions count the residues as written; N and C are the ends. Square brackets hold non-standard residues; d marks the D form. Peptide text beside a SMILES is read from it. * marks the point of attachment. Myristoyl = CCCCCCCCCCCCCC(=O)*; Decanoyl = CCCCCCCCCC(=O)*; dOrn = NCCC[C@@H](N)C(=O)O; Octanoyl = CCCCCCCC(=O)*; Orn = NCCC[C@H](N)C(=O)O
What was measured:
E. coli ATCC 25922 = format: cell-based, Escherichia coli; conditions: ATCC 25922, 18 h
Experimental: (§1) The minimum inhibitory concentrations (MICs) of brevicidine and laterocidine analogues were determined against a panel of clinically relevant ESKAPE pathogens; Escherichia coli (E. coli), Klebsiella pneumoniae (K. pneumoniae), Acinetobacter baumannii (A. baumannii), Pseudomonas aeruginosa (P. aeuroginosa) and Staphylococcus aureus (S. aureus), which cause the majority of nosocomial infections in the United States.[16] […] In this resistance mechanism, the polymyxin target (lipid A) is modified, reducing binding affinity. For this reason, a strain of colistin-resistant E. coli carrying the mcr-1 gene was also included in the panel. […]
(§2) IV. Antimicrobial testing
(§3) All minimum inhibitory concentrations (MICs) were determined according to Clinical and Standards Laboratory Institute (CLSI) guidelines. Blood agar plates were inoculated with glycerol stocks of E. coli ATCC 25922, K. pneumoniae ATCC 13883, A. baumannii ATCC 17961, P. aeruginosa PAO1 and S. aureus USA300. The inoculated agar plates were then incubated for 16 h at 37 °C . Individually grown colonies were subsequently used to inoculate 5 mL aliquots of TSB that were then incubated at 37 °C with shaking at 220 rpm. E. coli 25922 MCR-1 glycerol stock was used to inoculate 5 mL of TSB supplemented with kanamycin that was then incubated for 16 h at 37 °C with shaking at 220 rpm. The next day the culture was diluted 100 fold in TSB supplemented with kanamycin and incubated at 37 °C with shaking at 220 rpm. In parallel, the lipopeptide antibiotics DMSO stocks to be assessed were serially diluted with MHB in polypropylene 96-well plates (50 µL in each well). Colistin sulfate stocks were dissolved in water before being diluted with MHB. Aliquots of the inoculated TSB were incubated until an OD600 of around 0.5 was reached. The bacterial suspensions were then diluted with MHB (2 x 10^5 CFU mL-1) and added to the microplates containing the test compounds (50 µL to each well). The well-plates were sealed with an adhesive membrane and after 18 h of incubation at 37 °C with shaking at 600 rpm, the wells were visually inspected for bacterial […]
(§4) growth. MIC values reported are based on three technical replicates and defined as the lowest concentration of the compound that prevented visible growth of bacteria. […]
(§5) The values obtained from a read-out at 415 nm were corrected for background (negative control) and transformed to a percentage relative to the positive control.
(§6) VI. HPLC and HRMS analysis of peptides
(§7) Peptide Name Chemical Calcd Mass found Calcd Overall […]

E. coli ATCC 25922 MCR-1 = format: cell-based, Escherichia coli; conditions: colistin-resistant strain carrying mcr-1; CLSI broth microdilution in MHB, 18 h at 37 °C, visual inspection; three technical replicates
Experimental: as §1
Colisitin sulfate was purchased from Activate Scientific. Kanamycin monosulfate was purchased from MP Biomedicals. E. coli ATCC 25922, S. aureus USA300 (ATCC BAA1717), K. pneumoniae ATCC 13883 and A. baumannii ATCC 17961 belong to the American Type Culture Collection (ATCC). P. aeruginosa PAO1 was kindly provided by L.H.C. Quarles Van Ufford, Utrecht University, Utrecht, The Netherlands. E. coli ATCC 25922 MCR-1 was transfected in house using the pGDP2-MCR1 plasmid kindly provided by Yong-Xin Li, The University of Hong Kong, Hong Kong, China. Sheep blood agar plates (Ref. PB5039A) were purchased from Thermo Scientific. Tryptic soy broth (Ref. 02-200-500) was purchased from Scharlab. Mueller-Hinton broth (Ref. X927.1) was purchased from Carl Roth. Polypropylene 96-wells plates (Ref. 3879) were purchased from Corning. […]
(10.0 mL). 2-Chlorotrityl (CT) chloride resin (2.00 g, 0.81 mmol g-1) and DIPEA (420 µL, 2.40 mmol) were added. […]
A gradient […]
method for C14 - C16 laterocidine was employed, starting at 100% solvent A for 2 min, ramping up to 70 % solvent B over 45 min, ramping up to 100% solvent B over 1 min, remaining there for 6 min before ramping down to 100% solvent A and remaining there for 5 min. High resolution mass spectrometry (HRMS) spectra of brevicidine peptides were recorded by Analytical Services and Environmental Projects (ASEP) at Queen’s University Belfast on a Waters LCT Premier ToF mass spectrometer using the electrospray ionisation (ESI) technique. HRMS spectra of laterocidine peptides were performed on a Thermo Scientific Dionex UltiMate 3000 HPLC system with a Phenomenex Kinetex C18 (2.6 µm, 2.1 x 150 mm) column at 35 °C and equipped with a diode array detector. The following solvent system, at a flow rate of 0.3 mL/min, was used: solvent A = 0.1% formic acid in water, solvent B = 0.1% formic acid in acetonitrile. A gradient method was employed, starting at 95 % solvent A and 5 % solvent B for 1 min, ramping up to 95 % solvent B over 9 min, ramping up to 98 % solvent B over 1 min, remaining there for 1 min before ramping back down to 95 % solvent A over 2 min and remaining there for 1 min.
The system was connected to a Bruker micrOTOF-Q II mass spectrometer (ESI ionization) calibrated internally with sodium […]
as §2
as §3, with “MHB.” for “MHB. Aliquots of the inoculated TSB were incubated until an OD600 of around 0.5 was reached. The bacterial suspensions were then diluted with MHB (2 x 10^5 CFU mL-1) and added to the microplates containing the test compounds (50 µL to each well). The well-plates were sealed with an adhesive membrane and after 18 h of incubation at 37 °C with shaking at 600 rpm, the wells were visually inspected for bacterial”

K. pneumoniae ATCC 13883 = format: cell-based, Klebsiella pneumoniae; conditions: ATCC 13883, 18 h
Experimental: as §1, §2, §3, §4, §5, §6, §7

A. baumannii ATCC 17961 = format: cell-based, Acinetobacter baumannii; conditions: ATCC 17961, 18 h
Experimental: as §1, §2, §3, §4, §5, §6, §7

P. aeruginosa PAO1 = format: cell-based, Pseudomonas aeruginosa; conditions: PAO1, 18 h
Experimental: as §1, §2, §3, §4, §5, §6, §7

S. aureus USA300 = format: cell-based, Staphylococcus aureus; conditions: USA300, 18 h
Experimental: as §1, §2, §3, §4, §5, §6, §7

Sheep red blood cells = format: cell-based; conditions: red cells of sheep, 1 h, 64 μg mL^−1
Experimental: Having ascertained the antimicrobial activity of all synthetic peptides against a panel of ESKAPE pathogens, we next assessed their mammalian toxicity with hemolytic assays using sheep red blood cells. The % hemolysis for all peptides at 64 μg mL^−1 was determined, with the hemolysis induced by the surfactant 0.1% Triton X-100 taken as 100%. […] Hemolysis was <1% for all analogues with a C8 chain or shorter, including the strongest antibacterial peptide C8-Lat (22). Hemolytic activity increased up to C14 (>50% for C14-Lat) and then decreased at longer chain lengths, perhaps due to decreased solubility of peptides or aggregation. […]
Phosphate-Buffered Saline (PBS) containing 0.002% Tween20 (buffer) five times. Then, the red blood cells were normalized to obtain a positive control read-out between 2.5 and 3.0 at 415 nm to stay within the linear range with the maximum sensitivity. A serial dilution of the compounds (128 – 1 µg/mL, 75 µL) was prepared in a 96-well polypropylene plate. The outer border of the plate was filled with 75 µL buffer. Each plate contained a positive control (0.1% Triton-X final concentration, 75 µL) and a negative control (buffer, 75 µL) in triplicate. The normalized blood cells (75 µL) were added and the plates were incubated at 37 °C for 1 h while shaking at 500 rpm. A flat-bottom polystyrene plate with 100 µL buffer in each well was prepared. After incubation, the plates were centrifuged (800 g for 5 min at room temperature) and 25 µL of the supernatant was transferred to their respective wells in the flat-bottom plate. The values obtained from a read-out at 415 nm were corrected for background (negative control) and transformed to a percentage relative to the positive control. […]

For `CCCCCCCCCC(=O)N[C@H](CC(N)=O)C(=O)N[C@H](Cc1ccc(O)cc1)C(=O)N[C@H](Cc1c[nH]c2ccccc12)C(=O)N[C@H](CCCN)C(=O)N[C@@H](CCCN)C(=O)NCC(=O)N[C@H](CCCN)C(=O)N[C@@H](Cc1c[nH]c2ccccc12)C(=O)N[C@@H]1C(=O)N[C@@H]([C@@H](C)CC)C(=O)NCC(=O)N[C@@H](CO)C(=O)O[C@@H]1C` [Compound 14] (Decanoyl-[dN][dY][dW][dOrn][Orn]G[dOrn]WTIGS; ester 9-C), the “Antimicrobial activity (MIC) E. coli ATCC 25922” value (E. coli ATCC 25922) was 4 µg/mL, the “Antimicrobial activity (MIC) E. coli ATCC 25922 MCR-1” value (E. coli ATCC 25922 MCR-1) was 4 µg/mL and the “Antimicrobial activity (MIC) K. pneumoniae ATCC 13883” value (K. pneumoniae ATCC 13883) was 4 µg/mL. The “Antimicrobial activity (MIC) A. baumannii ATCC 17961” value (A. baumannii ATCC 17961) was 4 µg/mL, the “Antimicrobial activity (MIC) P. aeruginosa PAO1” value (P. aeruginosa PAO1) was 8 µg/mL and the “Antimicrobial activity (MIC) S. aureus USA300” value (S. aureus USA300) was 32 µg/mL. For the same compound, the “% Hemolytic activity, sheep red blood cells” value (“% Hemolytic activity” below) (Sheep red blood cells) was 6.2%.
In the case of `CCCCCCCC(=O)N[C@H](CO)C(=O)N[C@H](Cc1ccc(O)cc1)C(=O)N[C@H](Cc1c[nH]c2ccccc12)C(=O)N[C@H](CCCN)C(=O)N[C@@H](CCCN)C(=O)NCC(=O)N[C@H](CCCN)C(=O)N[C@@H](Cc1c[nH]c2ccccc12)C(=O)N[C@@H]1C(=O)N[C@@H]([C@@H](C)CC)C(=O)N[C@@H](CC(N)=O)C(=O)NCC(=O)NCC(=O)O[C@@H]1C` [Compound 22] (Octanoyl-[dS][dY][dW][dOrn][Orn]G[dOrn]WTINGG; ester 9-C), the “Antimicrobial activity (MIC) E. coli ATCC 25922” value (E. coli ATCC 25922) is reported as 2 µg/mL, the “Antimicrobial activity (MIC) E. coli ATCC 25922 MCR-1” value (E. coli ATCC 25922 MCR-1) is reported as 2 µg/mL and the “Antimicrobial activity (MIC) K. pneumoniae ATCC 13883” value (K. pneumoniae ATCC 13883) is reported as 2 µg/mL. The “Antimicrobial activity (MIC) A. baumannii ATCC 17961” value (A. baumannii ATCC 17961) was 4 µg/mL, the “Antimicrobial activity (MIC) P. aeruginosa PAO1” value (P. aeruginosa PAO1) was 2 µg/mL and the “Antimicrobial activity (MIC) S. aureus USA300” value (S. aureus USA300) was >32 µg/mL.
With `CC[C@H](C)[C@@H]1NC(=O)[C@@H](NC(=O)[C@H](Cc2c[nH]c3ccccc23)NC(=O)[C@@H](CCCN)NC(=O)CNC(=O)[C@H](CCCN)NC(=O)[C@@H](CCCN)NC(=O)[C@@H](Cc2c[nH]c3ccccc23)NC(=O)[C@@H](Cc2ccc(O)cc2)NC(=O)[C@H](N)CO)[C@@H](C)OC(=O)CNC(=O)CNC(=O)[C@H](CC(N)=O)NC1=O` [Compound 18] (H-[dS][dY][dW][dOrn][Orn]G[dOrn]WTINGG; ester 9-C) the “Antimicrobial activity (MIC) E. coli ATCC 25922” value (E. coli ATCC 25922) was >32 µg/mL, the “Antimicrobial activity (MIC) E. coli ATCC 25922 MCR-1” value (E. coli ATCC 25922 MCR-1) was >32 µg/mL and the “Antimicrobial activity (MIC) K. pneumoniae ATCC 13883” value (K. pneumoniae ATCC 13883) was >32 µg/mL. For the same compound, the “Antimicrobial activity (MIC) A. baumannii ATCC 17961” value (A. baumannii ATCC 17961) was >32 µg/mL, the “Antimicrobial activity (MIC) P. aeruginosa PAO1” value (P. aeruginosa PAO1) was >32 µg/mL and the “Antimicrobial activity (MIC) S. aureus USA300” value (S. aureus USA300) was >32 µg/mL. For the same compound, the “% Hemolytic activity” value (Sheep red blood cells) was 0.2%.
`CC[C@H](C)[C@@H]1NC(=O)[C@@H](NC(=O)[C@H](Cc2c[nH]c3ccccc23)NC(=O)[C@@H](CCCN)NC(=O)CNC(=O)[C@H](CCCN)NC(=O)[C@@H](CCCN)NC(=O)[C@@H](Cc2c[nH]c3ccccc23)NC(=O)[C@@H](Cc2ccc(O)cc2)NC(=O)[C@@H](CC(N)=O)NC(C)=O)[C@@H](C)OC(=O)[C@H](CO)NC(=O)CNC1=O` [Compound 10] (Ac-[dN][dY][dW][dOrn][Orn]G[dOrn]WTIGS; ester 9-C) was tested, and the “Antimicrobial activity (MIC) E. coli ATCC 25922” value (E. coli ATCC 25922) was >32 µg/mL, the “Antimicrobial activity (MIC) E. coli ATCC 25922 MCR-1” value (E. coli ATCC 25922 MCR-1) was >32 µg/mL and the “Antimicrobial activity (MIC) K. pneumoniae ATCC 13883” value (K. pneumoniae ATCC 13883) was >32 µg/mL. For the same compound, the “Antimicrobial activity (MIC) A. baumannii ATCC 17961” value (A. baumannii ATCC 17961) was >32 µg/mL, the “Antimicrobial activity (MIC) P. aeruginosa PAO1” value (P. aeruginosa PAO1) was 8 µg/mL and the “Antimicrobial activity (MIC) S. aureus USA300” value (S. aureus USA300) was >32 µg/mL. The “% Hemolytic activity” value (Sheep red blood cells) was 0.2%.
In the case of `CCCCCCCCCCCCCC(=O)N[C@H](CO)C(=O)N[C@H](Cc1ccc(O)cc1)C(=O)N[C@H](Cc1c[nH]c2ccccc12)C(=O)N[C@H](CCCN)C(=O)N[C@@H](CCCN)C(=O)NCC(=O)N[C@H](CCCN)C(=O)N[C@@H](Cc1c[nH]c2ccccc12)C(=O)N[C@@H]1C(=O)N[C@@H]([C@@H](C)CC)C(=O)N[C@@H](CC(N)=O)C(=O)NCC(=O)NCC(=O)O[C@@H]1C` [Compound 25] (Myristoyl-[dS][dY][dW][dOrn][Orn]G[dOrn]WTINGG; ester 9-C), the “Antimicrobial activity (MIC) E. coli ATCC 25922” value (E. coli ATCC 25922) is reported as 8 µg/mL, the “Antimicrobial activity (MIC) E. coli ATCC 25922 MCR-1” value (E. coli ATCC 25922 MCR-1) is reported as 8 µg/mL and the “Antimicrobial activity (MIC) K. pneumoniae ATCC 13883” value (K. pneumoniae ATCC 13883) is reported as 8 µg/mL. For the same compound, the “Antimicrobial activity (MIC) A. baumannii ATCC 17961” value (A. baumannii ATCC 17961) was 2 µg/mL, the “Antimicrobial activity (MIC) P. aeruginosa PAO1” value (P. aeruginosa PAO1) was 8 µg/mL and the “Antimicrobial activity (MIC) S. aureus USA300” value (S. aureus USA300) was 16 µg/mL.
